Results on 4 compounds are retold here after patent US20260158026A1, “METHODS OF TREATING CANCER AND COMPOSITIONS FOR THE SAME” (MARSAL THERAPEUTICS, INC., priority 2022, published 2026).

The subject of data set [1] is fibroblast cells from patient 1. The experiment in a line: IC50 measurement, cell viability assay. Format: cell-based. As to conditions: Homo sapiens. How it is done: (§1) Negative (100% DMSO) and positive (10 mM Staurosporine in DMSO) controls were placed in columns 10 and 11, respectively. The plate was diluted with 180 μL growth media/well and 5 μL of the resulting compound solution was transferred in quadruplicate to the assay plate. For the assay plate, 3,000 cells/well were plated in a 384 well clear bottom μL plate and allowed to adhere for at least 3 hours. […] The plates were incubated for 1, 2, 3, or 4 days. ATP levels were measured after incubation.

In data set [2] the test system is glioma cells from patient 1. The experiment in a line: Immunostaining with Caspase 3 antibody (apoptosis marker). Type of data set: cell-based, human. As to conditions: compared to positive control staurosporin, FIGS. 4C and 4D.
Data set [3] relates to patient-derived glioma cells. Nature of the data set: siRNA knockdown of CRISPR-Cas9 hits followed by IC50 measurement. Type of data set: cell-based, human. The protocol: FIG. 7C is a graph of cell viability after treatment with Compound 1 for certain targets identified in FIG. 7B in patient-derived glioma cells followed by measurement of IC50 post-treatment with serial dilution of Compound 1 according to Example 8.
(§2) With reference to Step I in FIGS. 7A and 7B, whole genome CRISPR-Cas9 studies (B. Schmierer, Mol Systems Biol., 13, 945 (2017)) were carried out to identify potential targets that could explain the effect produced by Compound 1 on cancer cells. […] With reference to Step II in FIG. 7A and FIGS. 8A and 8B, after the CRISPR screening analysis was complete, the expression of identified hits were confirmed in GB cells as shown in FIG. 8A. The binding of Compound 1 to the identified hits was established via a pull-down assay using biotin labeled Compound 1 (FIG. 8B).

The subject of data set [4] is GBM cells. Nature of the data set: Mitochondria vacuolization by Transmission Electron Microscopy. Type of data set: cell-based, human. The following applies: 2.5 μM, 5 μM, or 10 μM; 3, 6, 12, 24, and 48 hours. How it is done: Referring to FIGS. 6A and 6B, the GBM cells were analyzed via Transmission Electron (TEM) Microscopy after 3, 6, 12, 24, and 48 hours of incubation.

A further data set relates to Glioma cells. The experiment in a line: Cytotoxicity and apoptosis assays (ApoTox-Glo). Type of data set: cell-based, human.
For data set [5] the following is noted: previous clinical trials; cited from earlier work.
In a further data set the test system is fibroblast control. The experiment in a line: Immunostaining and quantification of Annexin V positive cells. Format: cell-based, human.
For data set [6], the system named is GBM cells isolated from an additional five patients. Nature of the data set: IC50 measurement, cell viability assay. Format: cell-based. The following applies: Homo sapiens, FIG. 2. How it is done: as §1
Serial dilutions in FIG. 2 show the effect of Compound 1 on GBM cells isolated from an additional five patients.

The subject of data set [7] is Patient-derived GBM cells. Nature of the data set: Long-term exposure assay. The following applies: 0.1 μM, incubated for 21 days, FIG. 3A. Format: cell-based, human. The protocol:
Long-term Exposure Assay: Measurements for long-term assays were performed on days 4, 8, 14, and 21. 3,000 cells/well were plated in a 384 well plate (for day 4 assay), a 96 well plate (for day 8 assay), a 24 well plate (for day 14 assay), a 6 well plate (for day 21 assay), or a 10 cm plate (for day 30 assay) and allowed to adhere as above. Following this, media was exchanged to DMEM (without FBS+1× Penstrep) with either DMSO as control treatment or compound (at final concentration of 0.1 μM or 5 μM). Every four days, media was replaced with fresh DMEM (without FBS+1×Penstrep) comprising DMSO (control) or compound. At the end of days 4, 8, 14, and 21 cell viability assays were performed.
Patient-derived GBM cells were treated with Compound 1 at concentrations of 5 μM or 0.1 μM and incubated for 21 days. Fibroblasts were used as a control (FIG. 3B).

The next data set deals with fibroblasts. The experiment in a line: Long-term exposure assay. Format: cell-based, human. As to conditions: 0.1 μM, 21 days, FIG. 3B.
A further data set has as its system Colon Cancer (HT-29). The experiment in a line: IC50 measurement, cell viability assay. Format: cell-based. The following applies: Homo sapiens, HT-29, 96 h, after 4 days of treatment. How it is done:
(§3) Negative (100% DMSO) and positive (10 mM Staurosporine in DMSO) controls were placed in columns 10 and 11, respectively. The plate was diluted with 180 μL growth media/well and 5 μL of the resulting compound solution was transferred in quadruplicate to the assay plate. For the assay plate, 3,000 cells/well were plated in a 384 well clear bottom μL plate and allowed to adhere for at least 3 hours. […] The plates were incubated for 1, 2, 3, or 4 days. ATP levels were measured after incubation. Based on the results of Example 1, Compound 1 was selected for further evaluation.

For another data set, the system named is Patient 1 GBM cells. The experiment in a line: IC50 measurement, cell viability assay. The following applies: Homo sapiens. Type of data set: cell-based. The protocol:
as §3

Data set [8] concerns Breast Cancer (MDA-MB-231). Nature of the data set: IC50 measurement, cell viability assay. Type of data set: cell-based. The following applies: Homo sapiens, MDA-MB-231, 96 h, after 4 days of treatment. How it is done: as §3
Data set [9] deals with Pancreatic Cancer (MIA-PACA). Nature of the data set: IC50 measurement, cell viability assay. Format: cell-based. As to conditions: Homo sapiens, MIA PaCa-2, 96 h, after 4 days of treatment. The protocol:
as §3

The next data set deals with Lung Cancer (H1299). The experiment in a line: IC50 measurement, cell viability assay. Format: cell-based. As to conditions: Homo sapiens, NCI-H1299, 96 h, after 4 days of treatment. How it is done: as §3
The test system of data set [10] is identified hits (BMPR1A, UTP23, ARHGAP33, ITSN1). The experiment in a line: Pull-down assay using biotin labeled Compound 1. As to conditions: pull-down with biotin labeled Compound 1, FIG. 8B. Format: binding, human. How it is done: as §2
In data set [11] the test system is GBM cells. The experiment in a line: Mitochondrial membrane potential (JC1 staining). Format: cell-based, human. The following applies: CCCP positive control, DMSO negative control; 24, 48, 72 hrs, FIGS. 5A and 5B. The protocol: FIG. 5B is a bar graph of JC1 staining for mitochondrial depolarization in GMB cells treated with DMSO (negative control), CCCP (positive control), or Compound 1 (CMPD1) at 24 hrs, 48 hrs, and 72 hrs according to Example 6.
GBM cells were treated with Compound 1, carbonyl cyanide m-chlorophenyl hydrazine (CCCP; positive control), or DMSO (negative control) and the mitochondrial membrane potential (indicative of functional status of the GBM cells) was measured and analyzed.

The subject of data set [12] is glioma cells from patient 1. The experiment in a line: Immunostaining and quantification of Annexin V positive cells. Type of data set: cell-based, human.
In data set [13] the test system is GBM cancer cell line xenograft. The experiment in a line: GBM xenograft stereotactically implanted into the brain of nude mice. Type of data set: in vivo. The following applies: oral administration, versus mice not treated. An excerpt: A GBM cancer cell line was xenografted into 8-week old male nude mice and the tumor was allowed to develop for four weeks. The GBM cells were stereotactically implanted into the brain and allowed to grow for four weeks. After four weeks, treatment with Compound 1 via oral administration was started (Day 1). The mice were allowed to live until the ethical endpoint of the study was reached. Body weight and activity of animals were monitored continuously.

In data set [14] the test system is GBM cells. The experiment in a line: Combination with FDA approved oncology drugs, cell viability. Type of data set: cell-based, human. The following applies: combination with Compound 1, FIGS. 12A-C. An excerpt:
The FDA approved oncology drugs included temozolomide (TMZ), ixabepilone, cladribine, enzalutamide, omacetaxine mepesuccinate, epothilones, erubulin, and latrunculin.

Structures are written as SMILES. pIC50: −log10 of the molar value. Like-named read-outs stand apart in the source and are kept apart here.

`Fc1ccc(C(OCCN2CCN(CCCc3ccccc3)CC2)c2ccc(F)cc2)cc1` [Compound 1, vanoxerine]: the pIC50 is 4.86 in data set [1] (96 h, serial dilution, 4 days of incubation, FIG. 1B, read-out: IC50 for fibroblast cells from patient 1); 4.39 to 4.80 in [1] (various cell passages, FIG. 1D, read-out: IC50 for the fibroblasts, range over cell passages); 5.33 in [6]; 5.62 in the data set with Colon Cancer (HT-29); 5.66 in the data set on Patient 1 GBM cells (96 h, after 4 days of treatment, cell viability assay, read-out: Mean IC50, Brain Cancer (Patient 1 GBM cells)); 5.31 with Patient 1 GBM cells (Glioma cell, 96 h, serial dilution, 4 days of incubation, FIG. 1B, read-out: IC50 for glioma cells from patient 1). Besides, the pIC50 is about 6.52 in the data set on Patient 1 GBM cells (various cell passages, FIG. 1C, range printed from about 300 nM to about 6.4 μM, read-out: IC50 for GBM cells, lower end of range over cell passages); about 5.19 in the data set with Patient 1 GBM cells (various cell passages, FIG. 1C, range printed from about 300 nM to about 6.4 μM, read-out: IC50 for GBM cells, upper end of range over cell passages); 5.64 in [8]; 5.62 in data set [9]; 5.68 in the data set on Lung Cancer (H1299). Besides, the “Apoptosis positive cells, Caspase 3 immunostaining” value in data set [2] was “did not produce apoptosis positive cells”. In addition, in [3] (siRNA knockdown of ARHGAP33, FIG. 7C), the “IC50 after knockdown of ARHGAP33 versus controls” value is given as “higher IC50 values”. Further, the “IC50 after knockdown of BMPR1A versus controls” value in data set [3] (siRNA knockdown of BMPR1A, FIG. 7C) is listed as “higher IC50 values”. Also, in data set [3] (siRNA knockdown of ITSN1, FIG. 7C), the “IC50 after knockdown of ITSN1 versus controls” value is recorded as “higher IC50 values”. In the data set on GBM cells [4], the “Vacuolization of mitochondria (TEM)” value is recorded as “induced vacuolization of mitochondria”. In addition, in the data set with Glioma cells, the “Apoptosis (ApoTox-Glo)” value is “apoptosis was not initiated”. Besides, the “Cytotoxicity (ApoTox-Glo)” value in the data set with Glioma cells was “immense cytotoxicity”. The “Safety when administered to humans” value in [5] was “establishing its safety”. The “Apoptosis positive cells, Annexin V” value (in the data set on fibroblast control; in [12]) was “do not produce more apoptosis positive cells” each time. In data set [7], the “Effect on GBM cells, long-term exposure” value is recorded as “eliminated the GBM cells”. Further, in the data set on fibroblasts, the “Cytotoxicity towards fibroblasts, long-term exposure” value is recorded as “without exhibiting cytotoxicity”. The “Binding to the identified hits” value in data set [10] is on record as “established”. Besides, in the data set with GBM cells [11], the Mitochondrial membrane potential result is “depolarization of mitochondria in a manner similar to CCCP”. Besides, the Physical activity entry in data set [13] is on record as “increased physical activity”. For the same compound, the Tumor size entry in [13] (FIG. 9) is “reduction in tumor size”. Also, the Bodyweight result in data set [13] (FIG. 10) is listed as “reduced loss in bodyweight”. In addition, the Life span entry in [13] (FIG. 11) is on record as “increased life span”.

Turning to `Nc1nc(Cl)nc2c1ncn2[C@H]1C[C@H](O)[C@@H](CO)O1` [cladribine], the “Cell viability, Compound 1 in the additional presence of the named drug” value (from here on “Cell viability”) in the data set with GBM cells [14] was “statistically significant decreases in cell viability”.

Turning to `CNC(=O)c1ccc(N2C(=S)N(c3ccc(C#N)c(C(F)(F)F)c3)C(=O)C2(C)C)cc1F` [enzalutamide], the “Cell viability” value in the data set on GBM cells [14] was “statistically significant decreases in cell viability”.

In the case of `C/C(=C\c1csc(C)n1)[C@@H]1C[C@@H]2O[C@]2(C)CCC[C@H](C)[C@H](O)[C@@H](C)C(=O)C(C)(C)[C@@H](O)CC(=O)N1` [ixabepilone], in the data set on GBM cells [14], the “Cell viability” value is listed as “statistically significant decreases in cell viability”.

The term pIC50 denotes −log10 of the IC50, conventionally taken in molar units.
